{"source": "patent US20140045807A2", "about": "“THE USE OF 3-METHOXY-PREGNENOLONE FOR THE PREPARATION OF A DRUG FOR TREATING A TRAUMATIC BRAIN INJURY” (priority 2004, published 2014)", "key": {"[1]": {"system": "α-tubulin forms (Tyr/Glu-Tub, Acet-Tub) in rat hippocampus", "assay": "Microtubule dynamics in rat hippocampus after single administration", "type": "in vivo", "conditions": "10 mg/kg subcutaneously, 3 h following injection", "source_text": "Mean±SEM, n=6 per group. **p<0.01, *[…] vs sesame oil.\nThe effects produced by neurosteroids were compared with those produced by acute administration of the antidepressant drug fluoxetine (selective serotonin reuptake inhibitor; SSRI)."}, "[2]": {"system": "transgenic mice expressing the longest human tau protein isoform", "assay": "RotaRod test in transgenic mice expressing the longest human tau protein isoform", "type": "in vivo, mouse", "conditions": "subcutaneous implant releasing 0.38 mg of steroid per day for 90 days", "source_text": "FIG. 8: Effect of molecule 43B on the motor incoordination of transgenic mice expressing the longest isoform of human tau protein in their neurons. […] The maximum speed of rotation of the RotaRod drum before the […] falls is a measurement of motor coordination (higher values correspond to a better treatment effect).\nIn order to evaluate the therapeutic potential of 43B to treat Alzheimer-type neurodegenerative diseases, a homozygous transgenic line of mice, such as described by Götz (EMBO J. 1995; 14(7):1304-13), can be used.\nThese mice express the longest human tau protein isoform. They present symptoms of neurological dysfunction expressed as muscular weakness and a reduction in motor coordination which correlate histologically with the appearance of abnormal neurites and hyperphosphorylated tau proteins as is seen in Alzheimer's disease. This pathological phosphorylation decreases the affinity of tau for microtubules and favors its aggregation.\nA breeding program was undertaken at Bicêtre and genotyping made it possible to select mice homozygous for the transgene. […] These implants released 0.38 mg of steroid per day for 90 days. The progression of motor incoordination was followed by repeated RotaRod tests."}, "[3]": {"system": "human neuroblastoma HS-SY5Y cells", "assay": "Cytotoxicity of okadaic acid, steroid protection (LDH release)", "type": "cell-based", "conditions": "24 hours, simultaneous addition, increasing concentrations", "source_text": "FIG. 6: Toxicity of okadaic acid. Steroid protection. […] Cell death was indicated by the release of lactate dehydrogenase (LDH) in the culture medium.\nOkadaic acid is a protein phosphatase inhibiter. Thus, the hyperphosphorylation of tau protein is implicated in microtubule depolymerization and in human neuroblastoma HS-SY5Y cell death. The exposure of SY5Y cell cultures to okadaic acid does in fact cause significant cell death."}, "ERβ": {"target": "ERβ (Homo sapiens, UniProt Q92731)", "sequence (Q92731 whole entry)": "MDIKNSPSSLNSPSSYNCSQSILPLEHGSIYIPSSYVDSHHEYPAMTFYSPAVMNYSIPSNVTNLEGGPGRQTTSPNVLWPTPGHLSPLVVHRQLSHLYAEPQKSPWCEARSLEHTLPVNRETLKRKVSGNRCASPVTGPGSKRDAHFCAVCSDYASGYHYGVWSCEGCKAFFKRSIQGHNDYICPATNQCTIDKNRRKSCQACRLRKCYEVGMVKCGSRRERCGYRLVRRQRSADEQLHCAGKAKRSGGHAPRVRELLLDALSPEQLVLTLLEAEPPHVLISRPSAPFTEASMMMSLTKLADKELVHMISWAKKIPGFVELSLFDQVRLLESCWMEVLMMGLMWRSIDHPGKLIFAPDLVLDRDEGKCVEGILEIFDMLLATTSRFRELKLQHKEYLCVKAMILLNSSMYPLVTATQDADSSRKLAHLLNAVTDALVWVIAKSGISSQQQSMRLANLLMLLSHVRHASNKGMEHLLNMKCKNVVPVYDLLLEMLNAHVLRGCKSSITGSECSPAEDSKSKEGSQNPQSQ", "assay": "Radioligand binding assay, ERβ", "conditions": "MAP4343 10 μM; 0.5 nM [^3H] Estradiol; Human recombinant Sf9 cells", "experimental": "Binding affinity of 3-methoxy-PREG (MAP4343) for receptors of steroid hormones was evaluated using radioligand binding assays."}, "GAP43": {"system": "GAP43", "assay": "Western blot of GAP43 in cortex and hippocampus after CCI", "type": "in vivo, rat", "conditions": "first injection 2 h post-trauma, day 35, injured cortex (20 mg/kg only), hippocampus and non-injured cortex (both doses)", "experimental": "FIG. 23: GAP43 expression, 35 days after TBI, in the left-uninjured and right-injured hemispheres (A: cortex and B: hippocampus) of CCI-injured animals, receiving either vehicle (D0) or MAP4343 (D1: 10 mg/kg and D2: 20 mg/kg), 2 h after injury.\nSamples were analyzed by Western-blot at day 35 post-trauma (D35) to evaluate the effects of MAP4343 on: MAP2 (the target of MAP4343 and a modulator of microtubule function), the post-synaptic markers PSD95 and spinophilin, the pre-synaptic marker synaptophysin, and the axonal growth/integrity marker GAP43.\nWestern blot was performed on cortex and hippocampus of TBI-injured animals receiving the first injection of MAP4343 (at 10 mg/kg or 20 mg/kg) or vehicle (sesame oil) 2 h after injury.\nThe expression level of various neuronal brain markers of plasticity was measured at day 35 post-trauma by western-blots in the cortex and hippocampus of left uninjured and right injured cerebral hemispheres of CCI traumatized animals receiving either vehicle (sesame oil, CCI-D0) or 3-methoxy-PREG (MAP4343) at 10 mg/kg (CCI-D1) or 20 mg/kg (CCI-D2), with first MAP4343 injection 2 h post-trauma."}, "[4]": {"assay": "Pharmacokinetics, GC/MS assay in brain and spinal cord", "type": "in vivo, rat", "conditions": "rats, 12 mg/kg subcutaneous in sesame oil; 1, 4, 8, 24 hours", "experimental": "FIG. 9: Kinetics of the appearance of 3-methoxy-PREG (43B) in rat brain and spinal cord following subcutaneous injection of 43B (12 mg/kg) in a sesame oil solution.\nThe pharmacokinetics of the molecules tested in vivo are evaluated using gas chromatography/mass spectrometry (GC/MS) assays."}}}
{"compound": "CO[C@H]1CC[C@@]2(C)C(=CC[C@H]3[C@@H]4CC[C@H](C(C)=O)[C@@]4(C)CC[C@@H]32)C1", "note": "[3-methoxy-PREG, 3β-methoxy-pregna-5-ene-20-one]", "values": [{"measurement": "Acet-Tub (marker of stable microtubules)", "setting": "[1]", "value": "significantly decreased"}, {"measurement": "Tyr/Glu-Tub ratio (index of microtubule dynamics)", "setting": "[1]", "value": "significantly increased"}, {"measurement": "motor dysfunction (RotaRod)", "setting": "[2]", "value": "beneficial effect on motor dysfunction"}, {"measurement": "cell death caused by okadaic acid (LDH release)", "setting": "[3]", "value": "the same effect, only much stronger"}, {"measurement": "% inhibition of specific binding", "setting": "ERβ", "value": "< 25", "unit": "%"}, {"measurement": "GAP-43 expression", "setting": "GAP43", "value": "increased GAP-43 expression"}, {"measurement": "penetration into spinal cord and brain", "setting": "[4]", "value": "penetrates rapidly into the spinal cord and the brain"}]}
